One assay concerns the target T1, WEE1 (Homo sapiens, UniProt P30291+Q96SW2).
T1 construct: C-terminal ePL-tagged (DiscoverX, Fremont, CA) full-length WEE1 expression construct; expressed in transfected cells; host or cells: LentiX-HEK293T (Invitrogen), lentiviral transduction; co-expressing GSPT1-GN (G576N, lacking the first 158 amino acids)
The experiment in a line: WEE1-ePL degradation assay (LentiX-WEE1-ePL-GSPT1-ND cells, InCELL Hunter luminescence, 4 h). Particulars: 293T-LentiX WEE1-ePL cells; for 293T-LentiX WEE1-ePL Degradation 4 hr (Ymin): lower limit of the fit (0 = luciferase inhibitor, Ymax = DMSO control); for DC50: read-out: 293T-LentiX WEE1-ePL Degradation 4 hr (EC50). It is filed as cell-based. How it is done:
To generate LentiX-WEE1-ePL-GSPT1-ND cells for the WEE1 degradation assay, LentiX-HEK293T (Invitrogen) were transduced by lentivirus with a C-terminal ePL-tagged (DiscoverX, Fremont, CA) full-length WEE1 expression construct. […] Cells were selected and maintained in complete DMEM media (DMEM, 10% Heat Inactivated FBS, 400 μg/mL Geneticin, and 1 μg/mL puromycin at 37 C and 5% CO2). Cells were passaged every 3-4 days by reseeding 1×10^6 cells in a T150 flask.
Cells were dispensed into 384-well white plates (Corning #3570, NY) that were pre-spotted with compounds using an acoustic dispenser (Echo acoustic transfer system, Beckman Coulter Life Sciences, Carlsbad, CA) as a 10-point dose-response curve with a 3-fold dilution starting at either 1 uM or 10 uM and including a DMSO control. Twenty-five microliters of media containing 2500 cells for LentiX-oeWEE1-ePL was dispensed per well. Assay plates were incubated at 37° C. with 5% CO2 for four hours (WEE1) After incubation, 25 μL of the InCELL Hunter™ Detection Reagent Working Solution (DiscoverX, Fremont, CA) was added to each well and incubated at room temperature for 30 minutes protected from light. After 30 minutes, luminescence was read on a PHERAstar luminometer (Cary, NC).
To determine the half-maximal effective concentration (EC50) values for WEE1-ePL degradation, a four parameter logistic model was used: (Sigmoidal Dose-Response Model) (FIT=(A+((B−A)/1+((C/x)^D)))) where C is the inflection point (EC50), D is the Hill slope, and A and B are the low and high limits of the fit respectively). The lower limit of the fit (value A) is referred to as Ymin. […] The maximum limit constraint, Ymax, is similarly derived using DMSO control. The curves were processed and evaluated using Activity Base (IDBS, Alameda, CA).

For another assay, the system named is MKN45 cells. The experiment in a line: MKN45 cell proliferation assay (Cell-Titer-Glo, 120 h). Format: cell-based. Particulars: for EC50: Homo sapiens, MKN-45, 120 h, Cell-Titer-Glo, read-out: MKN45 Cell Prolif. 120 hr (EC50); for MKN45 Cell Prolif. 120 hr (Ymin-Obs): minimal percent of DMSO control observed in the concentrations tested. How it is done:
MKN45 cells were obtained from Celgene internal cell banks and cultured in RPMI complete media (RPMI-1640, 1× Penicillin/Streptomycin, 1× glutamine, 1× Sodium Pyruvate, Non-essential Amino Acids, 10% Fetal Bovine serum, all component from Thermo-Fisher). Compounds were dispensed into 384-well plates using an HP DE300 compound printer in triplicate with 8 compounds on each plate. For each compound, a 10-point dose response was printed at half-log dilutions starting at either 1 uM or 10 uM. The DMSO concentration was kept constant for a final assay concentration of 0.1% per well assuming 50 ul final media volume. Compound plates were sealed and frozen at −20 C until use.
For each assay batch, compound plates were thawed and allowed to reach room temperature, and cells were seeded at 400 cells per well in 50 ul complete RPMI media. After 120 hours of incubation at 37 C and 5% CO2, cells were lysed by addition of 25 μL of Cell-Titer-Glo Reagent (Promega Corporation, Madison, WI), as per manufacturer's instructions, protected from light, shaken for 45 minutes, and total luminescence read by a Perkin Elmer Envision plate reader. Total luminescence signal is linearly correlated with cell number remaining in the well.
Luminescence data was processed per plate by subtracting reagent-only “blank” well luminescence from all measured values and calculating a percent of DMSO control value for each treatment well. Then, to determine the half-maximal effective concentration (EC50) values for cell growth inhibition, a four parameter logistic model was fit to the data for each DMSO-normalized compound: Sigmoidal Dose-Response Model: (FIT=(A+((B−A)/1+((C/x)^D)))) where C is the inflection point (EC50), D is the Hill slope, and A and B are the low and high limits of the fit respectively. The lower limit of the fit (value A) is referred to as Ymin-calculated. The minimal percent of DMSO control that is observed in the concentrations tested for each compound is labeled as “Ymin-obs”, and was recorded and reported in the tables. Sigmoidal fit curves were processed and evaluated using Activity Base (IDBS, Alameda, CA).

Like-named read-outs stand apart in the source and are kept apart here.

With `O=C1CCC(N2Cc3cc(O[C@H]4CCN(Cc5ccc6nc(N7C[C@@H]8C9CCC(O9)[C@@H]8C7)ccc6c5)C4)ccc3C2=O)C(=O)N1` (stereo partly drawn), at WEE1, the “293T-LentiX WEE1-ePL Degradation 4 hr (Ymin)” value amounted to 38 and the DC50 was found to be 0.00319 µM. Moreover, the EC50 in the assay with MKN45 cells (growth inhibition) was 0.00383 µM. The “MKN45 Cell Prolif. 120 hr (Ymin-Obs)” value in the assay with MKN45 cells came to 10.93.
`O=C1CCC(N2Cc3cc(O[C@H]4CCN(Cc5ccc6nc(N7C[C@@H]8C9CCC(O9)[C@@H]8C7)ncc6c5)C4)ccc3C2=O)C(=O)N1` (stereo partly drawn): on WEE1, the “293T-LentiX WEE1-ePL Degradation 4 hr (Ymin)” value came to 35 and the DC50 came to 0.00925 µM. The EC50 with MKN45 cells (growth inhibition) amounted to 0.0105 µM. Besides, the “MKN45 Cell Prolif. 120 hr (Ymin-Obs)” value in the assay with MKN45 cells was found to be 12.82.
As to `O=C1CC[C@H](N2Cc3cc(O[C@H]4CCN(Cc5ccc6nc([C@@H]7CCOC7)ncc6c5)C4)ccc3C2=O)C(=O)N1`, at WEE1, the “293T-LentiX WEE1-ePL Degradation 4 hr (Ymin)” value turned out to be 33 and the DC50 worked out at 0.018 µM. For the same compound, the 50% effective concentration (EC50) in the assay on MKN45 cells (growth inhibition) was determined as 0.013 µM. In addition, the “MKN45 Cell Prolif. 120 hr (Ymin-Obs)” value with MKN45 cells stood at 9.409.
On the same counts, the results for `O=C1CCC(N2Cc3cc(O[C@@H]4CCN(Cc5ccc6nc([C@@H]7CCOC7)ncc6c5)C4)ccc3C2=O)C(=O)N1` (relative stereo) [rel-3-(1-oxo-5-{[(3R)-1-({2-[(3S)-oxolan-3-yl]quinazolin-6-yl}methyl)pyrrolidin-3-yl]oxy}-2,3-dihydro-1H-isoindol-2-yl)piperidine-2,6-dione] are 34, 0.0218 µM, 0.0185 µM and 7.06.
On the same counts, the results for `CC(c1cnc2ccccc2c1)N1CC[C@@H](Oc2ccc3c(c2)CN(C2CCC(=O)NC2=O)C3=O)C1` (stereo in doubt) [rel-3-(1-oxo-5-{[(3R)-1-[1-(quinolin-3-yl)ethyl]pyrrolidin-3-yl]oxy}-2,3-dihydro-1H-isoindol-2-yl)piperidine-2,6-dione] are 50.89, 0.0834 µM, > 10 µM and 76.71.
For `O=C1CCC(N2Cc3cc(O[C@@H]4CCN(Cc5cnc6ccccc6c5)C4)ccc3C2=O)C(=O)N1` (stereo in doubt) [rel-3-(1-oxo-5-{[(3R)-1-[(quinolin-3-yl)methyl]pyrrolidin-3-yl]oxy}-2,3-dihydro-1H-isoindol-2-yl)piperidine-2,6-dione], in that order: 26.82, 0.00657 µM, 0.057 µM and 11.39.
Take `O=C1CCC(N2C(=O)c3ccc(O[C@H]4CCN(Cc5cnc6ccccc6c5)C4)cc3C2=O)C(=O)N1` (stereo partly drawn) [2-(2,6-dioxopiperidin-3-yl)-5-{[(3S)-1-[(quinolin-3-yl)methyl]pyrrolidin-3-yl]oxy}-2,3-dihydro-1H-isoindole-1,3-dione]: on WEE1, the “293T-LentiX WEE1-ePL Degradation 4 hr (Ymin)” value came out at 30.205 and the DC50 was 0.0329 µM. Besides, the EC50 in the assay with MKN45 cells (growth inhibition) stood at 0.621 µM. In addition, the “MKN45 Cell Prolif. 120 hr (Ymin-Obs)” value with MKN45 cells amounted to 15.39.
Consider `O=C1CCC(N2C(=O)c3ccc(O[C@H]4CCN(Cc5ccnc6ccccc56)C4)cc3C2=O)C(=O)N1` (stereo partly drawn) [2-(2,6-dioxopiperidin-3-yl)-5-{[(3S)-1-[(quinolin-4-yl)methyl]pyrrolidin-3-yl]oxy}-2,3-dihydro-1H-isoindole-1,3-dione], for which, on WEE1, the “293T-LentiX WEE1-ePL Degradation 4 hr (Ymin)” value was 38.05 and the DC50 came out at 1.23 µM. Moreover, the 50% effective concentration (EC50) in the assay with MKN45 cells (growth inhibition) turned out to be 2.51 µM. Besides, in the assay on MKN45 cells, the “MKN45 Cell Prolif. 120 hr (Ymin-Obs)” value is 48.18.
For `O=C1CCC(N2C(=O)c3ccc(O[C@H]4CCN(Cc5cccc6ncccc56)C4)cc3C2=O)C(=O)N1` (stereo partly drawn) [2-(2,6-dioxopiperidin-3-yl)-5-{[(3S)-1-[(quinolin-5-yl)methyl]pyrrolidin-3-yl]oxy}-2,3-dihydro-1H-isoindole-1,3-dione], on WEE1, the “293T-LentiX WEE1-ePL Degradation 4 hr (Ymin)” value came to 30.52 and the DC50 was determined as 0.0792 µM. Further, the EC50 with MKN45 cells (growth inhibition) was 2.23 µM. In addition, the “MKN45 Cell Prolif. 120 hr (Ymin-Obs)” value with MKN45 cells is reported as 44.93.
In the case of `O=C1CCC(N2C(=O)c3ccc(O[C@H]4CCN(Cc5ccc6ncccc6c5)C4)cc3C2=O)C(=O)N1` (stereo partly drawn) [2-(2,6-dioxopiperidin-3-yl)-5-{[(3S)-1-[(quinolin-6-yl)methyl]pyrrolidin-3-yl]oxy}-2,3-dihydro-1H-isoindole-1,3-dione], on WEE1, the “293T-LentiX WEE1-ePL Degradation 4 hr (Ymin)” value stood at 29.65 and the DC50 was 0.0434 µM. Further, the EC50 in the assay on MKN45 cells (growth inhibition) was 1.03 µM. Moreover, the “MKN45 Cell Prolif. 120 hr (Ymin-Obs)” value in the assay on MKN45 cells worked out at 21.24.
On the same counts, the results for `O=C1CCC(N2Cc3cc(O[C@H]4CCN(Cc5ccc6nc([C@H]7C[C@H](O)C7)ccc6c5)C4)ccc3C2=O)C(=O)N1` (stereo partly drawn) [3-(1-oxo-5-{[(3S)-1-({2-[(1r,3r)-3-hydroxycyclobutyl]quinolin-6-yl}methyl)pyrrolidin-3-yl]oxy}-2,3-dihydro-1H-isoindol-2-yl)piperidine-2,6-dione] are 32, 0.0038 µM, 0.00502 µM and 7.85.
Regarding `COC[C@H]1CC[C@H](c2ccc3cc(CN4CC[C@H](Oc5ccc6c(c5)CN(C5CCC(=O)NC5=O)C6=O)C4)ccc3n2)CC1` (stereo partly drawn) [3-(1-oxo-5-{[(3S)-1-({2-[(1r,4r)-4-(methoxymethyl)cyclohexyl]quinolin-6-yl}methyl)pyrrolidin-3-yl]oxy}-2,3-dihydro-1H-isoindol-2-yl)piperidine-2,6-dione], on WEE1, the “293T-LentiX WEE1-ePL Degradation 4 hr (Ymin)” value is on record as 33.24 and the DC50 amounted to 0.00157 µM. Also, the concentration giving a half-maximal response (EC50) in the assay with MKN45 cells (growth inhibition) was 0.00256 µM. In addition, the “MKN45 Cell Prolif. 120 hr (Ymin-Obs)” value in the assay with MKN45 cells is 14.13.
With `O=C1CC[C@H](N2Cc3cc(O[C@H]4CCN(Cc5ccc6nc(C7CCOCC7)ncc6c5F)C4)ccc3C2=O)C(=O)N1` [(3S)-3-(5-{[(3S)-1-{[5-fluoro-2-(oxan-4-yl)quinazolin-6-yl]methyl}pyrrolidin-3-yl]oxy}-1-oxo-2,3-dihydro-1H-isoindol-2-yl)piperidine-2,6-dione], in the assay on MKN45 cells, the EC50 stood at 0.0171 µM and the “MKN45 Cell Prolif. 120 hr (Ymin-Obs)” value stood at 9.88.
For `O=C1CC[C@H](N2Cc3cc(O[C@H]4CCN(Cc5cc(F)c6nc(N7CCOCC7)ccc6c5)C4)ccc3C2=O)C(=O)N1` [(3S)-3-(5-{[(3S)-1-{[8-fluoro-2-(morpholin-4-yl)quinolin-6-yl]methyl}pyrrolidin-3-yl]oxy}-1-oxo-2,3-dihydro-1H-isoindol-2-yl)piperidine-2,6-dione], in that order: 0.00719 µM and 12.7.
With `COC[C@@H]1CN(Cc2ccc3nc(C4CCOCC4)ccc3c2)C[C@H]1Oc1ccc2c(c1)CN([C@H]1CCC(=O)NC1=O)C2=O` [(3S)-3-(5-{[(3S,4S)-4-(methoxymethyl)-1-{[2-(oxan-4-yl)quinolin-6-yl]methyl}pyrrolidin-3-yl]oxy}-1-oxo-2,3-dihydro-1H-isoindol-2-yl)piperidine-2,6-dione], in the assay on MKN45 cells, the EC50 came to 0.000728 µM and the “MKN45 Cell Prolif. 120 hr (Ymin-Obs)” value came out at 9.194.

One may read the EC50 as the concentration at which the effect is half-maximal.

The record behind these values is patent US20240067632A1, “WEE1 Degrading Compounds and Uses Thereof” (Bristol-Myers Squibb Company, priority 2022, published 2024).
